Data from publication PMC10058949, “Effect of N-Terminal Peptide Modifications on In Vitro and In Vivo Properties of ^177Lu-Labeled Peptide Analogs Targeting CCK2R” (Pharmaceutics, 2023).
Like-named read-outs stand apart in the source and are kept apart here.

Legend:
[1] = Stability of 177Lu-labeled peptides in fresh human serum; type: in vitro ADME; conditions: 37 °C, 24 h incubation
Procedure: (§1) The stability studies with the ^177Lu-labeled peptide analogs were carried out at a concentration of 0.5 nmol peptide/mL in fresh human serum (n = 2) for up to 24 h. A mixture of 0.05 nmol/mL of the radiolabeled peptides in PBS and octanol (1/1, v/v) was used to evaluate the octanol/PBS distribution coefficient (logD7.4; n = 8). To determine the protein binding in human serum by Sephadex G-50 size-exclusion chromatography (GE Healthcare Illustra, Little Chalfont, UK), a 25 µL serum sample was used for different time points after incubation. All steps were performed according to previously published protocols.

[2] = Octanol/PBS distribution coefficient (logD7.4); type: physicochemical; conditions: octanol/PBS 1/1, pH 7.4; read-out: logD (octanol/PBS)
Procedure: as §1

[3] = Protein binding in human serum by Sephadex G-50 size-exclusion chromatography; type: in vitro ADME; conditions: human serum; time point not given
Procedure: as §1

[4] = Biodistribution 4 h p.i. in A431-CCK2R/A431-mock xenografted BALB/c nude mice; type: in vivo; conditions: female, BALB/c nude, mouse, iv, 20 pmol, total radioactivity, 4 h p.i., 20 pmol; for tissue uptake at 4 h: ~0.5 MBq, n=5
Procedure: (§2) Then, after 7–11 days, when visible tumor xenografts were formed, groups of 5 mice were injected intravenously via a lateral tail vein with ~0.5 MBq of radiolabeled peptide, corresponding to 20 pmol of peptide, in a total volume of ~150 µL in PBS/0.5% BSA. Using an additional mouse per group, a blocking study was performed by co-injecting a 1000-fold molar excess of the respective peptide analog (20 nmol) together with the radiolabeled peptide. For quantification, a 1:1, 1:10 and 1:50 standard was prepared using aliquots of the injection solution mixed with PBS/0.5% BSA. Mice were euthanized by cervical dislocation 4 h after injection. Subsequently, a blood sample was collected, and different tissues were dissected. All samples, as well as the rest of the body were weighed, and the activity measured in the γ-counter together with the standard. Results were expressed as percentage of injected activity per gram of tissue (%IA/g).

[5] = system: A431-CCK2R/A431-mock xenografted BALB/c nude mice; assay: as above; type: in vivo; conditions: 4 h p.i., ~0.5 MBq, 20 pmol, n=5
Procedure: as §2

[6] = Biodistribution blocking experiment with 1000-fold excess of non-radiolabeled peptide; type: in vivo, mice; conditions: female, BALB/c nude, mouse, iv, total radioactivity, 4 h p.i., 1000-fold excess of non-radiolabeled peptide, n=1
Procedure: as §2

[7] = system: A431-CCK2R/A431-mock xenografted BALB/c nude mice; assay: as above; type: in vivo; conditions: 4 h p.i., 1000-fold excess of non-radiolabeled peptide, n=1
Procedure: as §2

[8] = BALB/c mice, cited from earlier work

CCCC[C@@H](C(=O)N[C@@H](CC(=O)O)C(=O)N[C@@H](Cc1cccc2ccccc12)C(N)=O)N(C)C(=O)[C@H](Cc1c[nH]c2ccccc12)NC(=O)CNC(=O)[C@H](Cc1ccc(O)cc1)NC(=O)[C@H](C)NC(=O)[C@@H](CCC(=O)O)NC(=O)CN1CCN(CC(=O)O)CCN(CC(=O)O)CCN(CC(=O)O)CC1 [[^177Lu]Lu-DOTA-MGS5, metal not drawn, reference compound]
intact radiopeptide in human serum [1]: 96.9 ± 0.3% | logD [2]: -2.25 ± 0.13 | fraction unbound [3]: 0.667 | tissue uptake at 4 h ([4]; A431-CCK2R tumor xenograft, read-out: uptake in A431-CCK2R xenografts): 22.8 ± 4.67 %ID/g | tissue uptake at 4 h ([4]; A431-mock tumor xenograft, read-out: uptake in A431-mock xenografts): 0.19 ± 0.03 %ID/g | tissue uptake at 4 h ([4]; blood, read-out: uptake in blood): 0.11 ± 0.11 %ID/g | tissue uptake at 4 h ([4]; femur, read-out: uptake in femur): 0.36 ± 0.35 %ID/g | tissue uptake at 4 h ([4]; heart, read-out: uptake in heart): 0.1 ± 0.06 %ID/g | tissue uptake at 4 h ([4]; intestine, read-out: uptake in intestine): 1.02 ± 0.23 %ID/g | tissue uptake at 4 h ([4]; kidneys, read-out: uptake in kidneys): 3.45 ± 0.91 %ID/g | tissue uptake at 4 h ([4]; liver, read-out: uptake in liver): 1.02 ± 0.8 %ID/g | tissue uptake at 4 h ([4]; lung, read-out: uptake in lung): 0.17 ± 0.14 %ID/g | tissue uptake at 4 h ([4]; muscle, read-out: uptake in muscle): 0.1 ± 0.02 %ID/g | tissue uptake at 4 h ([4]; pancreas, read-out: uptake in pancreas): 1.91 ± 0.91 %ID/g | tissue uptake at 4 h ([4]; spleen, read-out: uptake in spleen): 0.27 ± 0.18 %ID/g | tissue uptake at 4 h ([4]; stomach, read-out: uptake in stomach): 6.26 ± 4.28 %ID/g | tissue to tissue ratio at 4 h ([4]; tumor / kidney, read-out: tumor-to-kidney ratio): 7 | uptake in liver [5]: 1.02 ± 0.23 % IA/g | tissue uptake at 4 h ([6]; A431-CCK2R tumor xenograft, read-out: uptake in A431-CCK2R xenograft, blocking): 0.54 %ID/g | tissue uptake at 4 h ([6]; A431-mock tumor xenograft, read-out: uptake in A431-mock xenograft, blocking): 0.34 %ID/g | tissue uptake at 4 h ([6]; blood, read-out: uptake in blood, blocking): 0.09 %ID/g | tissue uptake at 4 h ([6]; femur, read-out: uptake in femur, blocking): 0.04 %ID/g | tissue uptake at 4 h ([6]; heart, read-out: uptake in heart, blocking): 0.08 %ID/g | tissue uptake at 4 h ([6]; lung, read-out: uptake in lung, blocking): 0.08 %ID/g | tissue uptake at 4 h ([6]; pancreas, read-out: uptake in pancreas, blocking): 0.11 %ID/g | tissue uptake at 4 h ([6]; stomach, read-out: uptake in stomach, blocking): 0.09 %ID/g | uptake in intestine, blocking [7]: 0.79 % IA/g | uptake in kidneys, blocking [7]: 2.95 % IA/g | uptake in liver, blocking [7]: 0.54 % IA/g | uptake in muscle, blocking [7]: 0.03 % IA/g | uptake in spleen, blocking [7]: 0.16 % IA/g | intact radiopeptide in blood ([8]; 10 min after intravenous injection): 86% | intact radiopeptide in blood ([8]; 30 min p.i.): 77% | intact radiopeptide in blood ([8]; 1 h after intravenous injection): 70%
